biological target: T1, UBR box of Human UBR1 (Homo sapiens, UniProt Q8IWV7); assay: UBR box domain binding by microscale thermophoresis (MST); details: RED-NHS labeled UBR1 UBR box protein (Gln97-Pro168), FIGS. 12 to 19
T1 construct: A Gln97-Pro168 portion corresponding to the UBR box of Human UBR1; made in house; host or cells: E. coli
Procedure: A Gln97-Pro168 portion corresponding to the UBR box of Human UBR1 (UniProt ID: Q81WV7) was cloned into a modified expression vector, and then expressed in E. coli. After affinity chromatography was used, a tag was removed by a protease, and then Gly-His-Met was added to the N-terminal. After ion chromatography was performed, a final UBR box protein of a UBR1 was purified using gel filtration chromatography in a buffer composition of 10 mM NaCl, 20 mM Tris-HCl, 2 mM beta-mercaptoethanol, and pH 7.5.
A dye of the Monolith protein labeling kit RED-NHS 2nd generation (Cat #MO-L011) has an NHS-ester group that forms a covalent bond with primary amines (lysine residues). This dye is optimized for a Monolith-series device equipped with a RED detector. A purified UBR1 UBR box protein was labeled according to the presented protocol using this kit.
Thermophoresis refers to a phenomenon in which particles move due to a temperature gradient. Particles present in a high temperature region have greater kinetic energy than particles present in a low temperature region, and more frequently collide with surrounding particles with greater energy. As a result, particles move from the high temperature region to the low temperature region.
Thermophoresis of proteins is typically different from that of protein-ligand complexes. This is because the binding of the ligand changes its size, electric charge, and solvation energy. […] Therefore, the binding of the UBR1 UBR box protein and the ligand compound was measured using MST, and it was confirmed that the presented ligand binds to the UBR1 UBR box (see FIGS. 12 to 19).

T1 sequence (Q8IWV7 97-168): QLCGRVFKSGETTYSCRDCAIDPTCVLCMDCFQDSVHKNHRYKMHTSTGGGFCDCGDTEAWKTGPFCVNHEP

Molecule | binding to UBR1 UBR box (MST)
Cc1ccc(S(=O)(=O)NNC(=O)c2ccc(O)cc2)cc1 [Compound 1, N′-(4-hydroxybenzoyl)-4-methylbenzenesulfonohydrazide] | binds
Nc1cccc(S(=O)(=O)NNC(=O)c2ccc(O)cc2)c1 [Compound 8, 3-amino-N′-(4-hydroxybenzoyl)benzenesulfonohydrazide] | binds
CC(N)c1ccc(S(=O)(=O)NNC(=O)c2ccc(O)cc2)cc1 (stereo not drawn) [Compound 9, 4-(1-aminoethyl)-N′-(4-hydroxybenzoyl)benzenesulfonohydrazide] | binds
O=C(NNS(=O)(=O)c1ccc(NCCO)cc1)c1ccc(O)cc1 [Compound 11, N′-(4-hydroxybenzoyl)-4-((2-hydroxyethyl)amino)benzenesulfonohydrazide] | binds
COc1ccc(S(=O)(=O)NNC(=O)c2ccc(O)cc2)cc1 [Compound 13, N′-(4-hydroxybenzoyl)-4-methoxybenzenesulfonohydrazide] | binds

biological target: T2, UBR1 (Rattus norvegicus, UniProt A0A8I5ZK69); assay: Inhibition of muscle cell actin degradation by immunoblotting; format: cell-based; details: L6 cell line, compound 5 uM, 24 hours
T2 construct: endogenous in cells; host or cells: L6 rat muscle-derived cells
Procedure: To evaluate the actin degradation of compounds in muscle cells, a L6 cell line, which is a rat muscle-derived cell, was cultured using a DMEM medium containing 10% FBS and 1% streptomycin/penicillin in an incubator in which 5% carbon dioxide was maintained. In order to measure the UBR1 binding strength according to the treatment with a representative compound selected from the present compounds, cells were aliquoted into a 12-well plate. The cells were additionally cultured for 24 hours so as to be completely attached to the surface of the plate. […] To extract proteins from the collected cells, 50 uL of a lysis buffer (20 mM Tris, pH 7.4, 150 mM NaCl, 1% Triton-X-100, 2 mM NaF, 2 mM EDTA, 2 mM b-glycerophosphate, 5 mM sodium orthovanadate, 1 mM PMSF, leupeptin, aprotenin) was injected into each sample, and the cells were lysed. A sample buffer was added to each sample based on the measured total protein concentration, and the mixture was reacted at 100° C. for 5 minutes. After 5 uL was taken from the completely reacted sample and aliquoted into each well of an acrylamide gel, an immunoblotting method was performed, and the experimental results were illustrated in [FIG. 4], [FIG. 5], [FIG. 6], [FIG. 7], [FIG. 8], and [FIG. 9]. For the immunoblotting method, a representative experiment was schematized from three or more independent experiments.

T2 sequence (A0A8I5ZK69 1-1749): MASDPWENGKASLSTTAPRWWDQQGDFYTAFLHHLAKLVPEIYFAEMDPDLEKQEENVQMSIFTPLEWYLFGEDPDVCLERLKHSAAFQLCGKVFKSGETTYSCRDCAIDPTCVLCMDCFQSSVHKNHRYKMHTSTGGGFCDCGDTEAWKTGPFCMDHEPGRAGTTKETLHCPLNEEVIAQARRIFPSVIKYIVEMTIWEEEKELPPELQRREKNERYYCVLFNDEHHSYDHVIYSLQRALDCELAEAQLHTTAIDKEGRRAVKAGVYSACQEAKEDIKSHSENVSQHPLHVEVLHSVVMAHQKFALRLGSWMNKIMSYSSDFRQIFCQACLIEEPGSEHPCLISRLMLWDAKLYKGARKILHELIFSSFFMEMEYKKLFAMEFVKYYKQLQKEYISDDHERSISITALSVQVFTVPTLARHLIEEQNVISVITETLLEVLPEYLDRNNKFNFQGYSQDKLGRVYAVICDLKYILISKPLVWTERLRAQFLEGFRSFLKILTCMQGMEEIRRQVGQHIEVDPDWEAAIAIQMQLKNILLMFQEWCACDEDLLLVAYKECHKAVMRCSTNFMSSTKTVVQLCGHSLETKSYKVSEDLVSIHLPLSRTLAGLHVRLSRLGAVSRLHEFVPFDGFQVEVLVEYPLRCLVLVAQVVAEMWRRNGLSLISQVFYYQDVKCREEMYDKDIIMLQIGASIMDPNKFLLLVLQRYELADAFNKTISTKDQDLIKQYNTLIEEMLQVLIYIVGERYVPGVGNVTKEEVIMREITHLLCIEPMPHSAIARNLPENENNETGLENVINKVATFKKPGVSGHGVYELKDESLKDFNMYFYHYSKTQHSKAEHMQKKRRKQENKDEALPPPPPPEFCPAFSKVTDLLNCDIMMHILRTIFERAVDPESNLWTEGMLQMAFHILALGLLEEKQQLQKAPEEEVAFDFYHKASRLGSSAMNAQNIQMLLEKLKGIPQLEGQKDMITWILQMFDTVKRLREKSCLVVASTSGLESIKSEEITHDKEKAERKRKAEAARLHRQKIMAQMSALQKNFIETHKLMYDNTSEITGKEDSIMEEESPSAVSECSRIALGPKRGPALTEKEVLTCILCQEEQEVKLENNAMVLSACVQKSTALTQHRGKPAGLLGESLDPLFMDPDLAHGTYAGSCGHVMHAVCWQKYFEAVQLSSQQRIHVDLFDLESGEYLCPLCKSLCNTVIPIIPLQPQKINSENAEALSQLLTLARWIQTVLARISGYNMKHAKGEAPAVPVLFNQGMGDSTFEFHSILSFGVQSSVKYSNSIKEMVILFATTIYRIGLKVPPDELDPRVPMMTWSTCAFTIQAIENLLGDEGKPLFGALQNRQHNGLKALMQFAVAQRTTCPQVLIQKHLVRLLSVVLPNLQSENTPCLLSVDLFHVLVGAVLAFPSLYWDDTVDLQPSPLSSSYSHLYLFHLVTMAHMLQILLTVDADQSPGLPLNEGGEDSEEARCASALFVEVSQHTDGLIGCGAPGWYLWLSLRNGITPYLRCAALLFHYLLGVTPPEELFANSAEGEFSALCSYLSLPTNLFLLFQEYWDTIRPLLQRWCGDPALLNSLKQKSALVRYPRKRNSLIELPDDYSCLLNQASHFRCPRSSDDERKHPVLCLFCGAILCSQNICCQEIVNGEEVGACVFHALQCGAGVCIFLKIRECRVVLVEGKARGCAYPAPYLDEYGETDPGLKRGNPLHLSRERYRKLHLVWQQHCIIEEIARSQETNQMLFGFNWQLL

Molecule | level of ACTA1 compared to the control | level of ACTA2 compared to the control | level of ACTG2 compared to the control | level of ACTC1 compared to the control
Cc1ccc(S(=O)(=O)NNC(=O)c2ccc(O)cc2)cc1 [Compound 1, N′-(4-hydroxybenzoyl)-4-methylbenzenesulfonohydrazide] | further increased | – | – | –
Nc1ccc(S(=O)(=O)NNC(=O)c2ccc(-c3ccccc3)cc2)cc1 [Compound 6, N′-([1,1′-biphenyl]-4-carbonyl)-4-aminobenzenesulfonohydrazide] | further increased | – | – | –
Nc1cccc(S(=O)(=O)NNC(=O)c2ccc(O)cc2)c1 [Compound 8, 3-amino-N′-(4-hydroxybenzoyl)benzenesulfonohydrazide] | – | further increased | – | –
CC(N)c1ccc(S(=O)(=O)NNC(=O)c2ccc(O)cc2)cc1 (stereo not drawn) [Compound 9, 4-(1-aminoethyl)-N′-(4-hydroxybenzoyl)benzenesulfonohydrazide] | – | further increased | – | –
COc1ccc(S(=O)(=O)NNC(=O)c2ccc(O)cc2)cc1 [Compound 13, N′-(4-hydroxybenzoyl)-4-methoxybenzenesulfonohydrazide] | – | – | further increased | –
NC(=O)c1ccc(S(=O)(=O)NNC(=O)c2ccc(O)cc2)cc1 [Compound 15, 4-((2-(4-hydroxybenzoyl)hydrazinyl)sulfonyl)benzamide] | – | – | further increased | –
Nc1ccc(S(=O)(=O)NNC(=O)c2ccc(O)cc2)cc1-c1ccccc1 [Compound 17, 6-amino-N′-(4-hydroxybenzoyl)-[1,1′-biphenyl]-3-sulfonohydrazide] | – | – | further increased | –
NC(=O)c1ccc(C(=O)NNS(=O)(=O)c2ccc(N)cc2)cc1 [Compound 18, 4-(2-((4-aminophenyl)sulfonyl)hydrazine-1-carbonyl)benzamide] | – | further increased | – | –
Nc1ccc(CNNC(=O)c2ccc(O)cc2)cc1 [Compound 19, N′-(4-aminobenzyl)-4-hydroxybenzohydrazide] | – | further increased | – | –
Nc1ccc(S(=O)(=O)NNC(=O)c2c[nH]c3ccccc23)cc1 [Compound 20, 4-amino-N′-(1H-indole-3-carbonyl)benzenesulfonohydrazide] | – | further increased | – | –
O=C(NNS(=O)(=O)c1ccc([N+](=O)[O-])c(N2CCCC2)c1)c1ccc(O)cc1 [Compound 22, N′-(4-hydroxybenzoyl)-4-nitro-3-(pyrrolidin-1-yl)benzenesulfonohydrazide] | – | further increased | – | –
Nc1ccc(S(=O)(=O)NNC(=O)c2ccc(O)cc2)cc1N1CCCCC1 [Compound 23, 4-amino-N′-(4-hydroxybenzoyl)-3-(piperidin-1-yl)benzenesulfonohydrazide] | – | further increased | – | –
O=C(NNS(=O)(=O)c1cn[nH]c1)c1ccc(O)cc1 [Compound 24, N′-(4-hydroxybenzoyl)-1H-pyrazole-4-sulfonohydrazide] | – | further increased | – | –
O=C(NNS(=O)(=O)c1cccc2c1CCN2)c1ccc(O)cc1 [Compound 25, N′-(4-hydroxybenzoyl)indoline-4-sulfonohydrazide] | – | further increased | – | –
O=C(NNS(=O)(=O)c1cccc2[nH]ccc12)c1ccc(O)cc1 [Compound 26, N′-(4-hydroxybenzoyl)-1H-indole-4-sulfonohydrazide] | – | further increased | – | –
Nc1ccc(S(=O)(=O)NNC(=O)Nc2ccccc2)cc1 [Compound 27, 2-((4-aminophenyl)sulfonyl)-N-phenylhydrazine-1-carboxamide] | – | further increased | – | –
Nc1ccc(S(=O)(=O)NNC(=O)c2cccc3[nH]ccc23)cc1N1CCOCC1 [Compound 28, 4-amino-N′-(1H-indole-4-carbonyl)-3-morpholinobenzenesulfonohydrazide] | – | further increased | – | –

Molecule | level of ACTA1 compared to the control | level of ACTA2 compared to the control | level of ACTG2 compared to the control | level of ACTC1 compared to the control
Nc1ccc(S(=O)(=O)NNC(=O)c2cccc3c2CCN3)cc1 [Compound 29, 4-amino-N′-(indoline-4-carbonyl)benzenesulfonohydrazide] | – | – | further increased | –
Nc1ccc(S(=O)(=O)NNC(=O)c2ccc(O)cc2)cc1N1CCNCC1 [Compound 30, 4-amino-N′-(4-hydroxybenzoyl)-3-(piperazin-1-yl)benzenesulfonohydrazide] | – | – | further increased | –
Nc1ccc(S(=O)(=O)NNC(=O)C2Cc3ccccc3C2)cc1 [Compound 31, 4-amino-N′-(2,3-dihydro-1H-indene-2-carbonyl)benzenesulfonohydrazide] | – | – | further increased | –
Nc1ccc(S(=O)(=O)NNC(=O)N2Cc3ccccc3C2)cc1 [Compound 32, 4-amino-N′-(isoindoline-2-carbonyl)benzenesulfonohydrazide] | – | further increased | – | –
Nc1ccc(S(=O)(=O)NNC(=O)Cc2ccccc2)cc1 [Compound 34, 4-amino-N′-(2-phenylacetyl)benzenesulfonohydrazide] | – | further increased | – | –
O=C(NNS(=O)(=O)c1n[nH]c2ccccc12)c1ccc(O)cc1 [Compound 35, N′-(4-hydroxybenzoyl)-1H-indazole-3-sulfonohydrazide] | further increased | – | – | –
Nc1ccc(S(=O)(=O)NNC(=O)c2ccc3c(c2)NCC3)cc1 [Compound 36, 4-amino-N′-(indoline-6-carbonyl)benzenesulfonohydrazide] | further increased | – | – | –
Nc1ccc(S(=O)(=O)NNC(=O)C2CNc3ccccc32)cc1 (stereo not drawn) [Compound 37, 4-amino-N′-(indoline-3-carbonyl)benzenesulfonohydrazide] | further increased | – | – | –
O=C(NNS(=O)(=O)C1CCNCC1)c1ccc(O)cc1 [Compound 38, N′-(4-hydroxybenzoyl)piperidine-4-sulfonohydrazide] | further increased | – | – | –
Nc1ccc(S(=O)(=O)NNC(=O)c2ccc3c(c2)NCC3)cc1N1CCOCC1 [Compound 39, 4-amino-N′-(indoline-6-carbonyl)-3-morpholinobenzenesulfonohydrazide] | further increased | – | – | –
Nc1ccc(S(=O)(=O)NNC(=O)N2CCNCC2)cc1N1CCOCC1 [Compound 41, 4-amino-3-morpholino-N′-(piperazine-1-carbonyl)benzenesulfonohydrazide] | – | – | – | further increased
Cc1nc(S(=O)(=O)NNC(=O)c2ccc(O)cc2)cs1 [Compound 42, N′-(4-hydroxybenzoyl)-2-methylthiazole-4-sulfonohydrazide] | – | – | – | further increased
NC1CCC(S(=O)(=O)NNC(=O)c2ccc(O)cc2)CC1 [Compound 43, (1S,4S)-4-amino-N′-(4-hydroxybenzoyl)cyclohexane-1-sulfonohydrazide] | further increased | – | – | –
Cc1oc(C(=O)O)cc1S(=O)(=O)NNC(=O)c1ccc(O)cc1 [Compound 45, 4-((2-(4-hydroxybenzoyl)hydrazinyl)sulfonyl)-5-methylfuran-2-carboxylic acid] | further increased | – | – | –
O=C(NNS(=O)(=O)C1CCNC1)c1ccc(O)cc1 (stereo not drawn) [Compound 46, N′-(4-hydroxybenzoyl)pyrrolidine-3-sulfonohydrazide] | further increased | – | – | –
O=C(NNS(=O)(=O)c1cc2cccnc2[nH]1)c1ccc(O)cc1 [Compound 47, N′-(4-hydroxybenzoyl)-1H-pyrrolo[2,3-b]pyridine-2-sulfonohydrazide] | further increased | – | – | –
(1R,4R)-4-amino-N′-(4-hydroxybenzoyl)cyclohexane-1-sulfonohydrazide [Compound 44] | further increased | – | – | –

— patent US12559455B2, “Compound as a UBR box domain ligand” (AUTOTAC INC., priority 2020, dated 2026)
